One may read the IC50 as the concentration that gives 50% inhibition.

Consider 14 compounds from patent US5294713A, “2-piperazinone compounds and their use” (Takeda Chemical Industries, Ltd., priority 1991, dated 1994).

The target of experiment [1] is T1, GPIIb/IIIa (Homo sapiens, UniProt P05106+P08514).
T1 construct: Purification of GPIIb/IIIa from HEL Cells; endogenous in cells; host or cells: HEL cells (HEL 92.1.7; ATCC TIB180), human erythroleukemia; GPIIb/IIIa solubilized in Triton X-100, purified and adsorbed on microtiter plates
T1 sequence (P08514 32-887 limits assumed): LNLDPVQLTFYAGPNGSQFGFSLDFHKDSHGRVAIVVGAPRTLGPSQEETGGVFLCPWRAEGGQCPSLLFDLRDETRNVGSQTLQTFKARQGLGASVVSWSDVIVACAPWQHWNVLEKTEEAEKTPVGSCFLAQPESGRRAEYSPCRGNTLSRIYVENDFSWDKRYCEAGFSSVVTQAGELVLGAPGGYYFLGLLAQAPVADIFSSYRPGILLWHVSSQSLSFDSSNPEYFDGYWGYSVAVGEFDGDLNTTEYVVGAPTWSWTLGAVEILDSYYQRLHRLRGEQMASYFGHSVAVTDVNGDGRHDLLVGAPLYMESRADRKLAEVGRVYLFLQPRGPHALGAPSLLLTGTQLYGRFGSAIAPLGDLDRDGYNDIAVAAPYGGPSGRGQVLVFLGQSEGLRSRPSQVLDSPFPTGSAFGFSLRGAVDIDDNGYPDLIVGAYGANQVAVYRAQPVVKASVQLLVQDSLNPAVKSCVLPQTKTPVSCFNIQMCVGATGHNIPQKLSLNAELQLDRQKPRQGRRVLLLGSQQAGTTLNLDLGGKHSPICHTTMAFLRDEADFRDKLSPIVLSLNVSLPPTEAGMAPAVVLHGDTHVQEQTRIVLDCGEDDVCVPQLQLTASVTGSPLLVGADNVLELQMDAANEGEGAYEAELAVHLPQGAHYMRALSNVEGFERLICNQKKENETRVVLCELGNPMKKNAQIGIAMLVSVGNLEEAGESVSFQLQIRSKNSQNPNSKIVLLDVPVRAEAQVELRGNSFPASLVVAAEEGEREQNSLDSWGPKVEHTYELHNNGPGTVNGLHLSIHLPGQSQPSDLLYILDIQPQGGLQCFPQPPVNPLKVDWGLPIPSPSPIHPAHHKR
T1 sequence (P08514 891-1039 limits assumed): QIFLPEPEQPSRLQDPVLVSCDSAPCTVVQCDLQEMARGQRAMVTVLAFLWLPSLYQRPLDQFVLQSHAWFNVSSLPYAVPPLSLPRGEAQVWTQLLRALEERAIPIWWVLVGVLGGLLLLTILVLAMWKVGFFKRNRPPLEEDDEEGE
T1 sequence (P05106 27-788): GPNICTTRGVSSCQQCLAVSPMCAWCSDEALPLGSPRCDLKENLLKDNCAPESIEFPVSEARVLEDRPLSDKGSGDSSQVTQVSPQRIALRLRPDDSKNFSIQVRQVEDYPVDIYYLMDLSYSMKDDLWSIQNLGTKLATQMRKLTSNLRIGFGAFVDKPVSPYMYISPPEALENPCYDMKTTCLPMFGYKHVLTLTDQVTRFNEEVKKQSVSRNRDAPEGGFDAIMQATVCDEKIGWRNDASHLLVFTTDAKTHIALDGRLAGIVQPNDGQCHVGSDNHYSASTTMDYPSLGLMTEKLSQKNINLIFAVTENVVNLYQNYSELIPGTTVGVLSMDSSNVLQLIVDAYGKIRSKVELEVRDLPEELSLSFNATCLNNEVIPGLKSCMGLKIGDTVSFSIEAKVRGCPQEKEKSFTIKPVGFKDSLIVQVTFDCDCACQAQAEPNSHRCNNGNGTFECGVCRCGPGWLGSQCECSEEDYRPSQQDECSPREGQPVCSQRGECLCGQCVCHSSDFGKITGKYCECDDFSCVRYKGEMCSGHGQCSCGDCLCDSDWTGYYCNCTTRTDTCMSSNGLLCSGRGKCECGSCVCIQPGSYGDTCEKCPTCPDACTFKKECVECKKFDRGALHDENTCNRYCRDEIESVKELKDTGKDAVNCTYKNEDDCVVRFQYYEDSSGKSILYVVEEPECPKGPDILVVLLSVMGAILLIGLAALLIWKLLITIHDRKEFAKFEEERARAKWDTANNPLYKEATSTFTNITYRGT
Description: Inhibition of fibrinogen binding to GPIIb/IIIa. The settings on record: purified GPIIb/IIIa from HEL cells, biotinylated human fibrinogen 1 nM. The procedure:
(1) Cultibation of Cells Derived from Human Erythroleukemia (Hereinafter Referred to as HEL Cells)
HEL cells (HEL 92. 1. 7; ATCC No. TIB180) were purchased from ATCC (Rockville, Md., U.S.A.). The cells were grown in RPMI medium containing 40 mM N-2-hydroxyethylpiperazin-N'-2-ethanesulfonic acid (hereinafter referred to as HEPES) (pH 7.0), 100 μg/ml of Kanamycin and 10% FCS (GIBCO Laboratories, Grand Island, N.Y., U.S.A.). Cultivation was conducted at 37° C in the presence of 5% CO2.
(2) Purification of GPIIb/IIIa from HEL Cells
Purification of GPIIb/IIIa was performed using the following modification of the method of L. A. Fitzgerald et al. [J. Biol. Chem., 262, 3936 (1987)]. The purification was conducted at room temperature unless specifically mentioned. From 7 L of the culture broth on 7th day of the cultibation (floating cells), the cells were collected by centrifugation (1,000×g, 10 minutes, 4° C.), which were washed with 20 mM Tris-HCl(pH 7.5) containing 1 mM EDTA and 150 mM NaCl. The cells were suspended in 80 ml of a solubilized buffer [20 mM Tris-HCl, 150 mM NaCl, 1% Triton X-100, 1 mM MgCl2, 1 mM CaCl2, 0.1 mM (p-amidinophenyl)methanesulfonyl fluoride (hereinafter referred to as APMSF), 10 nM leupeptin, 0.02% NaN3, pH 7.4)].
The cell suspension was gently mixed for 30 minutes at 4° C. to solubilize GPIIb/IIIa. The suspension was subjected to centrigugation (100,000×g, one hour) at 4° C. to remove cell debris to obtain a cell-extraction solution (60 ml). […] The fraction which passed through the column was charged on the ConA-Sepharose column (Pharmacia LKB, .phi. 1.0×15 cm, 20 ml/hr) to allow GPIIb/IIIa to be adsorbed thereon, then GPIIb/IIIa was eluted with column buffer solution containing 0.5 M methyl α-D-mannopyranoside. The eluate thus obtained was allowed to pass through the DEAE-Toyopearl 650 M column (Tosoh, .phi. 1.6×10.5 cm, 20 ml/hr) equilibrated with the same column buffer to remove contaminating proteins.
(3) Biotinylation of Human Fibrinogen
Biotinylation of human fibrinogen was performed by the following procedure [I. F. Charo et al., J. Biol. Chem., 266, 1415 (1991)]. Human fibrinogen (Kabi Vitrum AB, Stockholm, Sweden) was dissolved in PBS so as to make its concentration 5 mg/ml. The solution was dialyzed overnight at 4° C. against 1 L of 0.1 M NaHCO3 -0.1 M NaCl (pH 8.2). Insolubles were then removed by centrifugation (100,000×g, 30 minutes), and the solution was diluted with the same buffer to the protein concentration of 1 mg/ml. To thus-diluted solution was added powdery sulfo-N-hydroxysuccinimidobiotin (Pierce Chemical Co., Rockford, Ill., U.S.A.) so as to make its final concentration 0.2 mg/ml and gently mixed to perform biotinylate fibrinogen. The resultant was subjected to dialysis against 50 mM Tris-HCl (pH 7.4) - 100 mM NaCl-0.05% NaN3. The dialysate was distributed and stored at 4° C.
(4) Inhibition Assay for Fibrinogen Binding to GPIIb/IIIa
This experiment was performed using a modification of the method described in the above-mentioned I. F. Charo et al. report. The purified GPIIb/IIIa was diluted with the buffer A (20 mM Tris-HCl, 150 mM NaCl, 1 mM CaCl2, 0.02% NaN3, pH 7.4) to a concentration of 1 μg/ml. The diluted solution was added to 96-well microtiter plates (MaxiSorp; Nunc, Denmark) at 100 μl per well, which were left standing at 4° C. overnight to allow GPIIb/IIIa to be adsorbed on the microplates. The plate was aspirated, and then 150 μl of the buffer B (35 mg/ml BSA, 50 mM Tris-HCl, 100 mM NaCl, 2 mM CaCl2, 0.02%, NaN3, pH 7.4) was added to the plate, and blocking was performed at 30° C. for 2 hours. The plate was washed twice with 250 μl each of the buffer C (1 mg/ml BSA, 50mM Tris-HCl, 100 mM NaCl, 2 mM CaCl2, pH 7.4).

For experiment [2], the system named is guinea pig platelet aggregation. Description: Inhibitory action on guinea pig platelet aggregation (ADP-stimulated PRP). The note with it: Cavia porcellus, ADP final concentration 1 μM, in vitro, read-out: Inhibitory effect on platelet aggregation in vitro (IC50) guinea pig. In kind it is cell-based. The procedure: TEST EXAMPLE 1 [I] Inhibitory action on guinea pig platelet aggregation
Blood was collected in 3.15% sodium citrate (1 ml for 9 ml of blood) by cardiac puncture from male guinea pig. The blood was centrifuged at 1000 g for 3 to 5 seconds at room temperature to obtain platelet rich plasma (PRP). The PRP was further centrifuged at 1000 g for 10 minutes to obtain platelet poor plasma (PPP). The number of platelets was measured using an automatic blood cell counter (Sysmex E2500, Toaiyou-densi). The platelet density of PRP was adjusted to 400,000/μl with PPP. Platelet aggregation was measured using an 8-channel aggregometer (NBS HEMA TRACER VI Niko Bioscience Inc.). The PRP (250 μl ) was preincubated at 37° C. for 2 minutes. and then incubated for 2 minutes. with 25 μl of physiological saline or various concentrations of test drugs followed by stimulation with ADP (final concentration: 1 μM). By comparing the maximum aggregation rates of the control and those of test drugs, the inhibitory rates were determined. The results are shown in [Table 1]-[Table 3].

In experiment [3] the test system is human platelet aggregation. The experiment in a line: Inhibitory action on human platelet aggregation (ADP-stimulated PRP). In kind it is cell-based. The note with it: ADP final concentration 3 μM, in vitro, read-out: Inhibitory effect on platelet aggregation in vitro (IC50) man. On the procedure: [II] Inhibitory action on human platelet aggregation
Human blood was collected in 3.8% sodium citrate (1 ml for 9 ml of blood) by venipuncture from healthy male volunteers. The blood was centrifuged at 1000 g for 3 to 5 seconds at room temperature to obtain platelet rich plasma (PRP). The PRP was further centrifuged at 1000 g for 10 minutes to obtain platelet poor plasma (PPP). The number of platelets was measured using an automatic blood cell counter (Sysmex E2500, Toaiyou-densi). The platelet density of PRP was adjusted to 300,000/μl with PPP. Platelet aggregation was measured using an 8-channel aggregometer (NBS HEMA TRACER VI Niko Bioscience Inc.). The PRP (250 μl) was preincubated at 37° C. for 2 minutes. and then incubated for 2 minutes. with 25 μl of physiological saline or various concentrations of test drugs followed by stimulation with ADP (final concentration: 3 μM). By comparing the maximum aggregation rates of the control and those of test drugs, the inhibitory rates were determined. The results are shown in [Table 1]-[Table 3].

In the case of `COC(=O)C[C@H]1C(=O)N(CC(=O)O)CCN1C(=O)CNC(=O)c1ccc(C(=N)N)cc1` [compound 59], the IC50 amounted to 0.49 nM in experiment [1], 56 nM in experiment [2] and 48 nM in experiment [3].

Take `COC(=O)C[C@H]1C(=O)N(CC(=O)O)CCN1C(=O)CNC(=O)c1ccc(CCN)cc1` [compound 60]: the IC50 in experiment [1] amounted to 0.91 nM; in experiment [2], 78 nM; in experiment [3] it was 93 nM.

As to `CC(C)(C)C(=O)OCOC(=O)CN1CCN(C(=O)CNC(=O)c2ccc(C(=N)N)cc2)[C@@H](Cc2ccccc2)C1=O` [compound 63], the IC50 in experiment [1] is 8.9 nM; in experiment [2], 460 nM; in experiment [3] it was 720 nM.

Regarding `N=C(N)c1ccc(C(=O)NCC(=O)N2CCN(CC(=O)O)C(=O)[C@@H]2CCC(=O)O)cc1` [compound 66], the IC50 in experiment [1] stood at 0.2 nM; in experiment [2], 66 nM; in experiment [3], 52 nM.

As for `C[C@@H](C(=O)O)N1CCN(C(=O)CNC(=O)c2ccc(C(=N)N)cc2)[C@@H](CC(=O)O)C1=O` [compound 69], the IC50 in experiment [1] turned out to be 19 nM; in experiment [2] it was 1500 nM; in experiment [3], 1600 nM.

Regarding `N=C(N)c1ccc(C(=O)NCC(=O)N2CCN(CC(=O)O)C(=O)[C@@H]2CC(N)=O)cc1` [compound 71], the IC50 was 0.92 nM in experiment [1], 110 nM in experiment [2] and 74 nM in experiment [3].

In the case of `NCCc1ccc(C(=O)NCC(=O)N2CCN(CC(=O)O)C(=O)[C@@H]2CCC(=O)O)cc1` [compound 76], the IC50 is 1 nM in experiment [1], 110 nM in experiment [2] and 150 nM in experiment [3].

Take `CN(C)CCc1ccc(C(=O)NCC(=O)N2CCN(CC(=O)O)C(=O)[C@@H]2CCC(=O)O)cc1` [compound 77]: the IC50 in experiment [1] is 45 nM; in experiment [2], 2500 nM; in experiment [3], 4700 nM.

Consider `COC(=O)CC[C@H]1C(=O)N(CC(=O)O)CCN1C(=O)CNC(=O)c1ccc(CCN)cc1` [compound 80], for which the results for the IC50 in experiment [1], in experiment [2] and in experiment [3] were 0.89 nM, 120 nM and 110 nM, respectively.

As to `NCCc1ccc(C(=O)NCC(=O)N2CCN(CC(=O)O)C(=O)[C@@H]2CCC(N)=O)cc1` [compound 84], the concentration for half-maximal inhibition (IC50) in experiment [1] was determined as 1 nM; in experiment [2], 110 nM; in experiment [3] it was 120 nM.

As to `CN(C)CCc1ccc(C(=O)NCC(=O)N2CCN(CC(=O)O)C(=O)[C@@H]2CCC(N)=O)cc1` [compound 85], the IC50 in experiment [1] is 32 nM; in experiment [2], 4100 nM; in experiment [3] it was 5600 nM.

On to `NCCc1ccc(C(=O)NCC(=O)N2CCN(CC(=O)O)C(=O)C2)cc1` [compound 87], for which the IC50 in experiment [1] is 1.6 nM; in experiment [2], 150 nM; in experiment [3], 180 nM.

On to `NCCc1ccc(C(=O)NCC(=O)N2CCN(CC(=O)O)C(=O)[C@@H]2CC(N)=O)cc1` [compound 88], for which the IC50 in experiment [1] was 2.3 nM; in experiment [2], 84 nM; in experiment [3] it was 140 nM.

On to `NCCc1ccc(C(=O)NCC(=O)N2CCN(CC(=O)O)C(=O)[C@@H]2Cc2ccccc2)cc1` [compound 89], for which the IC50 in experiment [1] stood at 3.6 nM; in experiment [2] it was 200 nM; in experiment [3], 380 nM.
